Four compounds from US11661421B2, “Indolizine compounds, preparation method and use thereof” (HAIHE BIOPHARMA CO., LTD., priority 2018, dated 2023) can be followed below.

T1 sequence (Q15910 whole entry Y641F): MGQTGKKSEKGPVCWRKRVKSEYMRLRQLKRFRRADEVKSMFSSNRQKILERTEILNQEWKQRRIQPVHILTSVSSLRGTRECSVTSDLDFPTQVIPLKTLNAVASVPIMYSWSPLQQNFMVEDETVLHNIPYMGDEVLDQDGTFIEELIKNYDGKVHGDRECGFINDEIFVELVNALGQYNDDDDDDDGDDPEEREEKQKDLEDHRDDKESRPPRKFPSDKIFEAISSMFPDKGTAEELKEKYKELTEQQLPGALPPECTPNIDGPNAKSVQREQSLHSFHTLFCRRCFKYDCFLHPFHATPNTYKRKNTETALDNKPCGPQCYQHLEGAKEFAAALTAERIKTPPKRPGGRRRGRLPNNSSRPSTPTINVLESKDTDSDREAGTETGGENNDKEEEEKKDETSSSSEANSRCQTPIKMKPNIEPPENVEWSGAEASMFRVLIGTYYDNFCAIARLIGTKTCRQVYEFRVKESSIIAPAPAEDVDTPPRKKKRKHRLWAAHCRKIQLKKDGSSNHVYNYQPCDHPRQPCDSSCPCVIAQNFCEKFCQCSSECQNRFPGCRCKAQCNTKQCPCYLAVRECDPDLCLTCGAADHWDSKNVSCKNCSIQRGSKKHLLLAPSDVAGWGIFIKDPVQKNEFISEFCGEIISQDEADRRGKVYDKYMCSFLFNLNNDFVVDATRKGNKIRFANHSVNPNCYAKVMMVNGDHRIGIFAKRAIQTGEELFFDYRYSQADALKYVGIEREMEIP
T1 sequence (O75530 whole entry partner): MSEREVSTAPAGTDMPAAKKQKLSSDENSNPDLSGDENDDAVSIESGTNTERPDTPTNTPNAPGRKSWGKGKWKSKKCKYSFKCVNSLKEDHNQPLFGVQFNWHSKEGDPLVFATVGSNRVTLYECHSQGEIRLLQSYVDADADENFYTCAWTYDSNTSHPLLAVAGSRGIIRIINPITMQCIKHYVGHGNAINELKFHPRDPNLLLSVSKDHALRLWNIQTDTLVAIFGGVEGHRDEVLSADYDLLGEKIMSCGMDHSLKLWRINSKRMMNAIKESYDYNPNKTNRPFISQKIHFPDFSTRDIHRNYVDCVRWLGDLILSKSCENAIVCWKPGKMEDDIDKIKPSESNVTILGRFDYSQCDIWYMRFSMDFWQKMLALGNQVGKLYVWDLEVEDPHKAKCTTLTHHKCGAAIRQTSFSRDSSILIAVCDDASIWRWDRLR
T1 sequence (Q15022 whole entry partner): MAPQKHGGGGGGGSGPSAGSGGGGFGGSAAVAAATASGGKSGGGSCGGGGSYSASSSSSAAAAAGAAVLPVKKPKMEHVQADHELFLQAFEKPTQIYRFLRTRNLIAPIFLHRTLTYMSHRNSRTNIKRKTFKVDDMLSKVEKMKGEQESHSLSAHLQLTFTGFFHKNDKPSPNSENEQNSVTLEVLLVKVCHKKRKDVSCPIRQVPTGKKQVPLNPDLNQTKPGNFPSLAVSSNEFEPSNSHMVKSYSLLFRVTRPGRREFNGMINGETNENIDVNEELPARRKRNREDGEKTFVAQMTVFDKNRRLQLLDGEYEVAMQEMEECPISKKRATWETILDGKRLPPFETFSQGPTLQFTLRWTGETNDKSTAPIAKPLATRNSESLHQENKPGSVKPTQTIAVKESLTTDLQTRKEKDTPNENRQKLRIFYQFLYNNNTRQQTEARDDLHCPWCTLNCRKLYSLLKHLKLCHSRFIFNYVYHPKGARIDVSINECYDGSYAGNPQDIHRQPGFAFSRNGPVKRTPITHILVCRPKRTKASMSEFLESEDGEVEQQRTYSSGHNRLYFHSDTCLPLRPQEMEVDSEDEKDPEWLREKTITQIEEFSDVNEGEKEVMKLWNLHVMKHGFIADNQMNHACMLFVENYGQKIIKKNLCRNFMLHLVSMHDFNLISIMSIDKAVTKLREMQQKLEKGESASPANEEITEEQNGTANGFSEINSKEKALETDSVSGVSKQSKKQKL
T1 sequence (Q09028 whole entry partner): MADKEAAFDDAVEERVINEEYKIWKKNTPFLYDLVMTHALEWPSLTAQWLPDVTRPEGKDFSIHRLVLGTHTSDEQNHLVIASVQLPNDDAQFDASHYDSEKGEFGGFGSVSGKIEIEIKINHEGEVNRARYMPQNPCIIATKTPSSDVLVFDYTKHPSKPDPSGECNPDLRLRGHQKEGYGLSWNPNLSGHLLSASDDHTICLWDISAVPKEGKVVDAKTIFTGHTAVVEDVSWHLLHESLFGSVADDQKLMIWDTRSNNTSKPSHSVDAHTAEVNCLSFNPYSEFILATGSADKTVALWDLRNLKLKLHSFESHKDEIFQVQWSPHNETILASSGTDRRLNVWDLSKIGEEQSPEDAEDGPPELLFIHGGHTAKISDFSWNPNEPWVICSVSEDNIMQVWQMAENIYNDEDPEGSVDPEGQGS
T1 sequence (Q6ZN18 whole entry partner): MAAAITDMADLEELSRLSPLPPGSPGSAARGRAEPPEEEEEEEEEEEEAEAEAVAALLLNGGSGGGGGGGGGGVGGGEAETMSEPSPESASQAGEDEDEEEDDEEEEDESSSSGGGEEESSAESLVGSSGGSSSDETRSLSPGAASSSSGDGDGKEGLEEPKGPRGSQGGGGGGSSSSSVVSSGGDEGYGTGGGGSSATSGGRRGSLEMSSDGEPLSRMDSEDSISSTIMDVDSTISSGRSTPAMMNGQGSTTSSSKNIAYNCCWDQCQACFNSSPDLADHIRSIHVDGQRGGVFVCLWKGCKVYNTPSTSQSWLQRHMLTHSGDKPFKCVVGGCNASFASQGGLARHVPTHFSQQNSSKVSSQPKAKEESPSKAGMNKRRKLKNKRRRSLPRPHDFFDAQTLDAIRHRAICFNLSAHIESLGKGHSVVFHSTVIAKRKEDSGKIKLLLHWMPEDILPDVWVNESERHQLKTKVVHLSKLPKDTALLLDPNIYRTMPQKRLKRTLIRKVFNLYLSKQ

This experiment concerns the target T1, PRC2 complex (EZH2 Y641F/EED/SUZ12/RbAp48/AEBP2) histone methyltransferase (Homo sapiens, UniProt Q15910, Y641F).
T1 construct: purchased Cisbio
As to the kind of experiment: PRC2 complex (EZH2 Y641F) activity assay, HTRF. The experiment is classed as biochemical. As to conditions: H3(1-50) K27me1 substrate, SAM, 4 h at room temperature, read-out: IC50 (EZH2_Y641F).
From the text: PRC2 Complex (Ezh2y641f) Activity Assay of the Compounds:
Test Method: Homogeneous Time-Resolved Fluorescence (HTRF)
Materials: PRC2 complex (EZH2 Y641F/EED/SUZ12/RbAp48/AEBP2) histone methyltransferase used in the test was purchased from Cisbio; substrate H3(1-50) K27me1 was a product of GL Biochem; methyl donor S-(5′-Adenosyl)-L-methionine chloride dihydrochloride (SAM) was purchased from Sigma-aldrich; Eu-labeled H3K27me3, Streptavidin-XL665 and the buffer used in the test were purchased from Cisbio.
Experiment method: PRC2 complex (EZH2 Y641F/EED/SUZ12/RbAp48/AEBP2), H3(1-50)me1 substrate, methyl donor SAM and the test compound were added to each well to reach a total of 10 μL reaction system and reacted in dark at room temperature for 4h. 5 μL of Eu-labeled H3K27 Me3 antibody and 5 μL of Streptavidin-XL665 were added to each well, mixed uniformly, and incubated at room temperature for 1 h. The fluorescence values at 620 nm and 665 nm were measured with a multi-label microplate analysis system (PerkinElmer Envision), and the HTRF signal ratio (665 nm/620 nm) was calculated for each well. The IC50 values of the compounds were calculated using SoftMax Pro 5.4.1 software.
Take `CC=C(c1c(C)c(C(=O)NCc2c(OC)cc(C)[nH]c2=O)cc2c(-c3ccnc(N(C)C)c3)ccn12)N1CCOCC1` [compound 1, 1-(2-(dimethylamino)pyridin-4-yl)-N-((4-methoxy-6-methyl-2-oxo-1,2-dihydropyridin-3-yl)methyl)-6-methyl-5-(1-morpholinylpropyl-1-en-1-yl)indolizine-7-formamide]: the 50% inhibitory concentration (IC50) came out at 11.4 nM.
In the case of `CNc1cc(-c2ccn3c(C(C)=C4CCN(CC(F)(F)F)CC4)c(C)c(C(=O)NCc4c(OC)cc(C)[nH]c4=O)cc23)ccn1` [compound 5, N-((4-methoxy-6-methyl-2-oxo-1,2-dihydropyridin-3-yl)methyl)-6-methyl-1-(2-(methylamino)pyridin-4-yl)-5-(1-(1-(2,2,2-trifluoroethyl)piperidin-4-alkenylene)ethyl)indolizine-7-carboxamide] it was 6.73 nM; in that of `COc1cc(C)[nH]c(=O)c1CNC(=O)c1cc2c(-c3ccnc(N(C)C)c3)ccn2c(C(C)=C2CCN(CC(F)(F)F)CC2)c1C` [compound 4, 1-(2-(dimethylamino)pyridin-4-yl)-N-((4-methoxy-6-methyl-2-oxo-1,2-dihydropyridine-3-yl)methyl)-6-methyl-5-(1-(1-(2,2,2-trifluoroethyl)piperidin-4-alkenylene)ethyl)indolizine-7-formamide], 8.82 nM; in that of `C=C(c1c(C)c(C(=O)NCc2c(OC)cc(C)[nH]c2=O)cc2c(-c3ccc(C)nn3)ccn12)N1CCN(CC(F)(F)F)CC1` [compound 3, N-((4-methoxy-6-methyl-2-oxo-1,2-dihydropyridin-3-yl)methyl)-6-methyl-1-(6-methylpyridazin-3-yl)-5-(1-(4-(2,2,2-trifluoroethyl)piperazin-1-yl)vinyl)indolizine-7-carboxamide], 4.91 nM.
